Assay results: patent publication US20250197359A1, “CANNABINOID RECEPTOR MODULATING COMPOUNDS” (The U.S.A., as Represented by the Secretary, Department of …, priority 2022, published 2025)

Experiments:
Brain/CB1 = target: T1, Brain/CB1 (Mus musculus, UniProt P47746); assay: Functional GTPγS binding, Brain/CB1; format: biochemical
T1 construct: from tissue; host or cells: mouse brain membranes
Source text: Furthermore, the intermediates urea compounds 8a-m were chlorinated with phosphorus oxychloride in the presence of DIPEA base to form imidoyl chloride intermediate and reacted with acetamidine hydrochloride/methyl carbamimidothioate iodide/methyl carbamimidoselenoate iodide and other amines to furnish the target compounds (10a-34b) (Scheme 2, FIG. 2, Scheme 5, FIG. 5). The urea derivatives were converted to the thiourea derivatives 9a-9d by employing sodium thiosulfate. Compound 8a-b, 8e-f were converted to corresponding thiourea by employing sodium thiosulfate dissolved in water dioxane mixture and the reaction was heated to 85° C. for 2 h. […] The binding constant for the synthesized compounds were determined by using radioligand binding assay in mouse brain membranes as well as the target compounds were evaluated in vitro at the human CB1 receptor, stably expressed into Chinese hamster ovary (CHO) cells as well as mouse brain membrane CB1.

CB1 = CB1 (UniProt P21554); assay: CB1 radioligand binding assay; design: species or system human; conditions: read-out: Ki (CB1)
Description: The target compounds were evaluated in vitro at the human CB1 receptor, stably expressed into Chinese hamster ovary (CHO) cells by utilizing radioligand binding studies.
The binding constant for the synthesized compounds were determined by using radioligand binding assay in mouse brain membranes as well as the target compounds were evaluated in vitro at the human CB1 receptor, stably expressed into Chinese hamster ovary (CHO) cells as well as mouse brain membrane CB1. […]

T1 sequence (P47746 whole entry): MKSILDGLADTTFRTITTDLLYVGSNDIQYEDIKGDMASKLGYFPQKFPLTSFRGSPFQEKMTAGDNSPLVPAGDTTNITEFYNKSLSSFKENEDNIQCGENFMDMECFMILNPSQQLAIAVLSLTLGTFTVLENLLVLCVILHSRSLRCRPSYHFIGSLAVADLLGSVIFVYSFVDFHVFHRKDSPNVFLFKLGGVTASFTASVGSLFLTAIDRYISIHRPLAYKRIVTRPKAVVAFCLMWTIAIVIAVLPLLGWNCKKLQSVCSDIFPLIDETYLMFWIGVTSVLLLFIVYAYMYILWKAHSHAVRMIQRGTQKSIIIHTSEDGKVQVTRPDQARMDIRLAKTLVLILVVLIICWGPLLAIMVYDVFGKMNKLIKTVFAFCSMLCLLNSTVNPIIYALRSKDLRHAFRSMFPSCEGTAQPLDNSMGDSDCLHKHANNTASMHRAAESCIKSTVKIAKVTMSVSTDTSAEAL

| Structure (SMILES) | IC50 (Brain/CB1) | Ki (CB1) |
| --- | --- | --- |
| C/C(N)=N\C(=N\S(=O)(=O)c1ccc(C(F)(F)F)cc1)N1CCC(c2ccccc2)C(c2ccc(Cl)cc2)=N1 (single isomer, unassigned) [Compound 10bE1, (Z)—N—((E)-1-aminoethylidene)-3-(4-chlorophenyl)-4-phenyl-N′-((4-(trifluoromethyl)phenyl)sulfonyl)-5,6-dihydropyridazine-1 (4H)-carboximidamide] | > 1000 nM |  |
| C/C(N)=N\C(=N\S(=O)(=O)c1ccc(C(F)(F)F)cc1)N1CCC(c2ccccc2)C(c2ccc(Cl)cc2)=N1 (single isomer, unassigned) [Compound 10bE2, (Z)—N—((E)-1-aminoethylidene)-3-(4-chlorophenyl)-4-phenyl-N′-((4-(trifluoromethyl)phenyl)sulfonyl)-5,6-dihydropyridazine-1 (4H)-carboximidamide] | 34 nM |  |
| CC(C)(C)/C(N)=N/C(=N/S(=O)(=O)c1ccc(C(F)(F)F)cc1)N1CCC(c2ccccc2)C(c2ccc(Cl)cc2)=N1 (single isomer, unassigned) [Compound 10oE1, (Z)—N—((Z)-1-amino-2,2-dimethylpropylidene)-3-(4-chlorophenyl)-4-phenyl-N′-((4-(trifluoromethyl)phenyl)sulfonyl)-5,6-dihydropyridazine-1 (4H)-carboximidamide] | 222 nM | 351 nM |
| CC(C)(C)/C(N)=N/C(=N/S(=O)(=O)c1ccc(C(F)(F)F)cc1)N1CCC(c2ccccc2)C(c2ccc(Cl)cc2)=N1 (single isomer, unassigned) [Compound 10oE2, (Z)—N—((Z)-1-amino-2,2-dimethylpropylidene)-3-(4-chlorophenyl)-4-phenyl-N′-((4-(trifluoromethyl)phenyl)sulfonyl)-5,6-dihydropyridazine-1 (4H)-carboximidamide] | 11 nM | 7.3 nM |
| N/C(=N\C(=N\S(=O)(=O)c1ccc(C(F)(F)F)cc1)N1CCC(c2ccccc2)C(c2ccc(Cl)cc2)=N1)c1ccccc1F (single isomer, unassigned) [Compound 10tE1, (Z)—N—((Z)-amino (2-fluorophenyl)methylene)-3-(4-chlorophenyl)-4-phenyl-N′-((4-(trifluoromethyl)phenyl)sulfonyl)-5,6-dihydropyridazine-1 (4H)-carboximidamide] | 51 nM |  |
| N/C(=N\C(=N\S(=O)(=O)c1ccc(C(F)(F)F)cc1)N1CCC(c2ccccc2)C(c2ccc(Cl)cc2)=N1)c1ccccc1F (single isomer, unassigned) [Compound 10tE2, (Z)—N—((Z)-amino (2-fluorophenyl)methylene)-3-(4-chlorophenyl)-4-phenyl-N′-((4-(trifluoromethyl)phenyl)sulfonyl)-5,6-dihydropyridazine-1 (4H)-carboximidamide] | 18 nM |  |
| N/C(=N\C(=N\S(=O)(=O)c1ccc(C(F)(F)F)cc1)N1CCC(c2ccccc2)C(c2ccc(Cl)cc2)=N1)c1ccccn1 (single isomer, unassigned) [Compound 10vE1, (Z)—N—((Z)-amino (pyridin-2-yl)methylene)-3-(4-chlorophenyl)-4-phenyl-N′-((4-(trifluoromethyl)phenyl)sulfonyl)-5,6-dihydropyridazine-1 (4H)-carboximidamide] | 107 nM | 11.5 nM |
| N/C(=N\C(=N\S(=O)(=O)c1ccc(C(F)(F)F)cc1)N1CCC(c2ccccc2)C(c2ccc(Cl)cc2)=N1)c1ccccn1 (single isomer, unassigned) [Compound 10vE2, (Z)—N—((Z)-amino (pyridin-2-yl)methylene)-3-(4-chlorophenyl)-4-phenyl-N′-((4-(trifluoromethyl)phenyl)sulfonyl)-5,6-dihydropyridazine-1 (4H)-carboximidamide] | 24 nM | 5 nM |
| CC(C)C(N/C(=N/S(=O)(=O)c1ccc(C(F)(F)F)cc1)N1CCC(c2ccccc2)C(c2ccc(Br)cc2)=N1)C(N)=O (single isomer, unassigned) [Compound 26a, (Z)-2-(3-(4-bromophenyl)-4-phenyl-N′-((4-(trifluoromethyl)phenyl)sulfonyl)-1,4,5,6-tetrahydropyridazine-1-carboximidamido)-3-methylbutanamide] | > 1000 nM |  |
| CC(C)C(N/C(=N/S(=O)(=O)c1ccc(C(F)(F)F)cc1)N1CCC(c2ccccc2)C(c2ccc(Br)cc2)=N1)C(N)=O (single isomer, unassigned) [Compound 26b, (Z)-2-(3-(4-bromophenyl)-4-phenyl-N′-((4-(trifluoromethyl)phenyl)sulfonyl)-1,4,5,6-tetrahydropyridazine-1-carboximidamido)-3-methylbutanamide] | 9.5 nM |  |
| COc1ccc(S(=O)(=O)/N=C(/NC(C(N)=O)C(C)C)N2CCC(c3ccccc3)C(c3ccc(Cl)cc3)=N2)cc1 (single isomer, unassigned) [Compound 27a, (Z)-2-(3-(4-chlorophenyl)-N′-((4-methoxyphenyl)sulfonyl)-4-phenyl-1,4,5,6-tetrahydropyridazine-1-carboximidamido)-3-methylbutanamide] | > 1000 nM |  |
| COc1ccc(S(=O)(=O)/N=C(/NC(C(N)=O)C(C)C)N2CCC(c3ccccc3)C(c3ccc(Cl)cc3)=N2)cc1 (single isomer, unassigned) [Compound 27b, (Z)-2-(3-(4-chlorophenyl)-N′-((4-methoxyphenyl)sulfonyl)-4-phenyl-1,4,5,6-tetrahydropyridazine-1-carboximidamido)-3-methylbutanamide] | 51 nM |  |
| CC(C)C(N/C(=N/S(=O)(=O)c1ccccc1)N1CCC(c2ccccc2)C(c2ccc(Cl)cc2)=N1)C(N)=O (single isomer, unassigned) [Compound 28a, (Z)-2-(3-(4-chlorophenyl)-4-phenyl-N′-(phenylsulfonyl)-1,4,5,6-tetrahydropyridazine-1-carboximidamido)-3-methylbutanamide] | > 1000 nM |  |
| CC(C)C(N/C(=N/S(=O)(=O)c1ccccc1)N1CCC(c2ccccc2)C(c2ccc(Cl)cc2)=N1)C(N)=O (single isomer, unassigned) [Compound 28b, (Z)-2-(3-(4-chlorophenyl)-4-phenyl-N′-(phenylsulfonyl)-1,4,5,6-tetrahydropyridazine-1-carboximidamido)-3-methylbutanamide] | 336 nM |  |
| CC(C)C(N/C(=N/S(=O)(=O)c1ccc(Cl)cc1)N1CCC(c2ccccc2)C(c2ccc(Cl)cc2)=N1)C(N)=O (single isomer, unassigned) [Compound 30a, (Z)-2-(3-(4-chlorophenyl)-N′-((4-chlorophenyl)sulfonyl)-4-phenyl-1,4,5,6-tetrahydropyridazine-1-carboximidamido)-3-methylbutanamide] | > 1000 nM | 907 nM |
| CC(C)C(N/C(=N/S(=O)(=O)c1ccc(Cl)cc1)N1CCC(c2ccccc2)C(c2ccc(Cl)cc2)=N1)C(N)=O (single isomer, unassigned) [Compound 30b, (Z)-2-(3-(4-chlorophenyl)-N′-((4-chlorophenyl)sulfonyl)-4-phenyl-1,4,5,6-tetrahydropyridazine-1-carboximidamido)-3-methylbutanamide] | 39 nM | 18.2 nM |
| CC(N/C(=N/S(=O)(=O)c1ccc(C(F)(F)F)cc1)N1CCC(c2ccccc2)C(c2ccc(Cl)cc2)=N1)C(N)=O (single isomer, unassigned) [Compound 31a, (Z)-2-(3-(4-chlorophenyl)-4-phenyl-N′-((4-(trifluoromethyl)phenyl)sulfonyl)-1,4,5,6-tetrahydropyridazine-1-carboximidamido) propenamide] | 863 nM | 96.9 nM |
| CCN(CC)/C(N)=N/C(=N/S(=O)(=O)c1ccc(C(F)(F)F)cc1)N1CCC(c2ccccc2)C(c2ccc(Cl)cc2)=N1 (centres unmarked) [Compound 18, (Z)—N—((E)-amino (diethylamino)methylene)-3-(4-chlorophenyl)-4-phenyl-N′-((4-(trifluoromethyl)phenyl)sulfonyl)-5,6-dihydropyridazine-1 (4H)-carboximidamide] |  | 536 nM |
| CC(C)(C)OC(=O)N/C(N)=N\C(=N\S(=O)(=O)c1ccc(C(F)(F)F)cc1)N1CCC(c2ccccc2)C(c2ccc(Cl)cc2)=N1 (centres unmarked) [Compound 19] |  | 383 nM |
| O=S(=O)(/N=C(\NC12CC3CC(CC(C3)C1)C2)N1CCC(c2ccccc2)C(c2ccc(Cl)cc2)=N1)c1ccc(C(F)(F)F)cc1 (centres unmarked) [Compound 20, (E)-N-((3s,5s,7s)-adamantan-1-yl)-3-(4-chlorophenyl)-4-phenyl-N′-((4-(trifluoromethyl)phenyl)sulfonyl)-5,6-dihydropyridazine-1 (4H)-carboximidamide] |  | 80.9 nM |
| O=C(O)CCCN/C(=N/S(=O)(=O)c1ccc(C(F)(F)F)cc1)N1CCC(c2ccccc2)C(c2ccc(Cl)cc2)=N1 (centres unmarked) [Compound 21, (Z)-4-(3-(4-chlorophenyl)-4-phenyl-N′-((4-(trifluoromethyl)phenyl)sulfonyl)-1,4,5,6-tetrahydropyridazine-1-carboximidamido) butanoic acid] |  | 579 nM |
| NC(=S)NN/C(=N/S(=O)(=O)c1ccc(C(F)(F)F)cc1)N1CCC(c2ccccc2)C(c2ccc(Cl)cc2)=N1 (centres unmarked) [Compound 22, (Z)-2-((3-(4-chlorophenyl)-4-phenyl-5,6-dihydropyridazin-1 (4H)-yl)(((4-(trifluoromethyl)phenyl)sulfonyl)imino)methyl) hydrazine-1-carbothioamide] |  | 575 nM |
